Data on four compounds can be found in the supplement of paper PMC11451515.

For the experiment, the system named is NOMO1. The experiment in a line: cell viability relative to DMSO control; higher = less cytotoxic. The note with it: 48 h. The method in brief:
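Library compounds in DMSO were pin-dosed into 1536-well plates (5 μl) holding NOMO1 or SEM (500 cells/well) or P12-Ichikawa (1000 cells/well) leukemia cells, across an 11-point threefold series of 47 μM to 0.79 nM. Each cell line had been adapted for at least four passages in each medium. CellTiter-Glo One luminescence was read after 48 h at 37°C. Viability is the per-plate percentage relative to DMSO wells, with cell-free wells as background.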

Where [1] appears, read: RPMI 5 mM glucose + 10% FBS, 0.000781 µM.
Where [2] appears, read: RPMI 5 mM glucose + 10% FBS, 0.00234 µM.
Where [3] appears, read: RPMI 5 mM glucose + 10% FBS, 0.00702 µM.
[4] abbreviates: RPMI 5 mM glucose + 10% FBS, 0.0211 µM.
The mark [5] stands for this setting: RPMI 5 mM glucose + 10% FBS, 0.0632 µM.
Setting [6] is: RPMI 5 mM glucose + 10% FBS, 0.19 µM.
Where [7] appears, read: RPMI 5 mM glucose + 10% FBS, 0.569 µM.
The mark [8] stands for this setting: RPMI 5 mM glucose + 10% FBS, 1.71 µM.
The mark [9] stands for this setting: RPMI 5 mM glucose + 10% FBS, 5.12 µM.
Setting [10] is: RPMI 5 mM glucose + 10% FBS, 15.4 µM.
Where [11] appears, read: RPMI 5 mM glucose + 10% FBS, 46.1 µM.
[12] abbreviates: RPMI 5 mM glucose + 10% dialyzed FBS, 0.000781 µM.
[13] abbreviates: RPMI 5 mM glucose + 10% dialyzed FBS, 0.00234 µM.
Setting [14] is: RPMI 5 mM glucose + 10% dialyzed FBS, 0.00702 µM.
[15] abbreviates: RPMI 5 mM glucose + 10% dialyzed FBS, 0.0211 µM.
The mark [16] stands for this setting: RPMI 5 mM glucose + 10% dialyzed FBS, 0.0632 µM.
The mark [17] stands for this setting: RPMI 5 mM glucose + 10% dialyzed FBS, 0.19 µM.
Where [18] appears, read: RPMI 5 mM glucose + 10% dialyzed FBS, 0.569 µM.
[19] abbreviates: RPMI 5 mM glucose + 10% dialyzed FBS, 1.71 µM.
Where [20] appears, read: RPMI 5 mM glucose + 10% dialyzed FBS, 5.12 µM.
Setting [21] is: RPMI 5 mM glucose + 10% dialyzed FBS, 15.4 µM.
Where [22] appears, read: RPMI 5 mM glucose + 10% dialyzed FBS, 46.1 µM.

What is called cell viability is a read-out of living cells in per cent, often relative to untreated cells. Regarding `C=CCc1cccc(/C=N/NC(=O)CN2CCN(Cc3ccccc3)CC2)c1O`, the cell viability was 120% under setting [1]; 115% under setting [2]; 108% under setting [3]; 119% under setting [4]; 116% under setting [5]; 109% under setting [6]. In addition, the cell viability stood at 114% under setting [7]; 100% under setting [8]; 115% under setting [9]; 96.5% under setting [10]; 8.9% under setting [11].

In the case of `Nc1cccc2c1CN([C@H]1CCC(=O)NC1=O)C2=O`, the cell viability is, setting by setting: under setting [1], 125%; under setting [2], 118%; under setting [3], 124%; under setting [4], 123%; under setting [5], 112%; under setting [6], 114%. Further, the cell viability runs as follows: under setting [7], 98.3%; under setting [8], 105%; under setting [9], 99.7%; under setting [10], 82.1%; under setting [11], 112%; under setting [12], 101%. The cell viability is, setting by setting: under setting [13], 111%; under setting [14], 120%; under setting [15], 104%; under setting [16], 114%; under setting [17], 108%; under setting [18], 107%. Moreover, the cell viability runs as follows: under setting [19], 109%; under setting [20], 103%; under setting [21], 88.4%; under setting [22], 107%.

For `CC1(N2CCC(n3c([C@@H]4CCCNC4)nc4ccccc43)CC2)CCCCCCC1`, the cell viability came to 77.1% (HPLM + 10% dialyzed FBS, 0.000781 µM); 100% (HPLM + 10% dialyzed FBS, 0.00234 µM); 112% (HPLM + 10% dialyzed FBS, 0.00702 µM); 111% (HPLM + 10% dialyzed FBS, 0.0211 µM); 127% (HPLM + 10% dialyzed FBS, 0.0632 µM); 116% (HPLM + 10% dialyzed FBS, 0.19 µM). The cell viability reads like this: (HPLM + 10% dialyzed FBS, 0.569 µM) 116%; (HPLM + 10% dialyzed FBS, 1.71 µM) 101%; (HPLM + 10% dialyzed FBS, 5.12 µM) 94%; (HPLM + 10% dialyzed FBS, 15.4 µM) 45.4%; (HPLM + 10% dialyzed FBS, 46.1 µM) 7.21%; under setting [1], 93.6%. In addition, the cell viability was found to be 103% under setting [2]; 102% under setting [3]; 112% under setting [4]; 108% under setting [5]; 124% under setting [6]; 112% under setting [7]. The cell viability runs as follows: under setting [8], 120%; under setting [9], 109%; under setting [10], 97.7%; under setting [11], 53.5%; under setting [12], 91%; under setting [13], 108%. The cell viability stood at 122% under setting [14]; 115% under setting [15]; 121% under setting [16]; 104% under setting [17]; 130% under setting [18]; 134% under setting [19]. For the same compound, the cell viability reads like this: under setting [20], 98.4%; under setting [21], 69.4%; under setting [22], 17.8%.

For `CNCc1ccc(-c2[nH]c3cc(F)cc4c3c2CCNC4=O)cc1`, the cell viability amounted to 111% under setting [1]; 117% under setting [2]; 126% under setting [3]; 147% under setting [4]; 133% under setting [5]; 127% under setting [6]. In addition, the cell viability reads like this: under setting [7], 128%; under setting [8], 130%; under setting [9], 120%; under setting [10], 132%; under setting [11], 125%; under setting [12], 103%. The cell viability reads like this: under setting [13], 120%; under setting [14], 131%; under setting [15], 155%; under setting [16], 139%; under setting [17], 139%; under setting [18], 125%. Further, the cell viability runs as follows: under setting [19], 136%; under setting [20], 151%; under setting [21], 145%; under setting [22], 141%.
